{"source": "patent US20140329755A1", "about": "“COMBINATION THERAPY FOR THE TREATMENT OF ARRHYTHMIAS OR HEART FAILURE” (Gilead Sciences, Inc., priority 2013, published 2014)", "key": {"isolated rat right atria [1]": {"system": "isolated rat right atria", "experiment": "ATX-II-induced arrhythmias in spontaneously beating isolated rat right atria (arrhythmia score)", "conditions": "for IC50: isolated rat right atria, read-out: IC50, prevention of ATX-II induced arrhythmias and diastolic dysfunction", "method": "(§1) Rats were anesthetized by intraperitoneal injection of 60 mg/kg ketamine and 8 mg/kg xylazine. The heart was rapidly removed and immersed in oxygenated Krebs-Henseleit buffer (in mmol/L: 118 NaCl, 4.8 KCl, 1.2 KH2PO4, 2.5 CaCl2, 1.2, MgSO4, 2 pyruvic acid, 5.5 glucose, 0.5 Na2EDTA, and 25 NaHCO3, pH 7.4). Rat right atria were quickly excised and suspended in a chamber of the Danish Myo Technologies (DMT) myograph containing 8 ml of oxygenated Krebs-Henseleit buffer. Mechanical and electrical changes were measured simultaneously in spontaneously beating atria. Isometric tension was recorded by a force transducer connected to a PowerLab data acquisition system (AD Instruments, Colorado Springs, Colo.). A bipolar electrode was attached to the surface of the atrium to record an electrogram. After stabilization, the atria were preincubated with a late INa inhibitor (0.1 μmol/L GS967 or 3 μmol/L ranolazine), a CaMKII inhibitor ((0.3 μmol/L AIP or 0.3 μmol/L KN-93) or their combination for 30 min, then treated with 50 nmol/L ATX-II to induce arrhythmias and diastolic dysfunction.\n(§2) Isolated right atria beat spontaneously at a rate of 298+12 bpm. ATX-II induced premature beats, tachyarrhythmia and fibrillation in rat isolated right atria. Arrhythmias were recorded for 30 min following ATX-II treatment, and quantified using an arbitrary numerical grading of perceived severity as described previously (32) and shown in Table 1."}, "[2]": {"system": "isolated rat atrial myocytes", "experiment": "ATX-II-induced diastolic Ca2+ increase in isolated rat atrial myocytes", "type": "cell-based", "conditions": "100 nmol/L GS967, 300 nmol/L AIP, alone or combined; FIG. 3", "method": "Adult male rats were anesthetized and hearts were rapidly removed and perfused in a retrograde mode (Langendorff preparation) with a modified Tyrode solution containing (in mmol/L): NaCl (135), KCl (4.6), MgCl2 (1.1), NaH2PO4 (1) glucose (10), HEPES (10), pH 7.4. Hearts were perfused for 5 min with a nominal Ca^2+-free Tyrode solution, then with a low Ca^2+ (2 µmol/L) solution containing 0.896 mg/ml collagenase type II (Worthington, USA) and 0.68 mg/ml bovine serum albumin (BSA) for 8-11 min at 37° C. […]\n[Molecular Probes, USA], indo-1 AM [Molecular Probes] or 5 μmol/L Asante NaTRIUM Green 2 AM (Teflabs, USA) by incubation for 25 min at 23° C. in bath solution containing 1.0 mmol/L Ca^2+, and 2.5 μmol/L pluronic acid (Molecular Probes). Fluo-4 was excited at 488 nm, and the fluorescence was acquired at wavelengths >505 nm in the line scan mode or XY mode of the confocal system. Asante NaTRIUM Green 2 was excited at 543 nm, and fluorescence was acquired at wavelengths >560 nm in the XY scan mode. Intracellular calcium concentrations were monitored in electrically stimulated cells loaded with indo-1 AM using an IonOptix spectrophotometer (IonOptix, Milton, Mass.). […] Emitted fluorescence (405 nm and 485 nm) was detected by a photomultiplier tube. […] Fluorescent images were analyzed using ImageJ software (NIH) and Origin 8.1 (OriginLab, USA)."}, "isolated rat right atria [3]": {"system": "isolated rat right atria", "experiment": "ATX-II-induced increase of diastolic tension in isolated rat right atria", "conditions": "3 μM RAN, 0.1 μM GS-967, 0.3 μM KN-93, 0.3 μM AIP, alone or combined, 50 nmol/L ATX-II", "method": "as §1"}, "isolated rat right atria [4]": {"system": "isolated rat right atria", "experiment": "ATX-II-induced AF in isolated rat right atria", "conditions": "3 μmol/L ranolazine, 100 nmol/L GS967, 300 nmol/L KN-93, 300 nmol/L AIP, alone or combined; FIG. 1", "method": "as §1, §2"}, "late INa [5]": {"system": "late INa", "conditions": "cited from earlier work"}, "[6]": {"system": "isolated ventricular myocytes and hearts", "conditions": "cited from earlier work"}, "peak INa": {"target": "peak INa (Homo sapiens, UniProt Q14524)", "sequence (Q14524 whole entry)": "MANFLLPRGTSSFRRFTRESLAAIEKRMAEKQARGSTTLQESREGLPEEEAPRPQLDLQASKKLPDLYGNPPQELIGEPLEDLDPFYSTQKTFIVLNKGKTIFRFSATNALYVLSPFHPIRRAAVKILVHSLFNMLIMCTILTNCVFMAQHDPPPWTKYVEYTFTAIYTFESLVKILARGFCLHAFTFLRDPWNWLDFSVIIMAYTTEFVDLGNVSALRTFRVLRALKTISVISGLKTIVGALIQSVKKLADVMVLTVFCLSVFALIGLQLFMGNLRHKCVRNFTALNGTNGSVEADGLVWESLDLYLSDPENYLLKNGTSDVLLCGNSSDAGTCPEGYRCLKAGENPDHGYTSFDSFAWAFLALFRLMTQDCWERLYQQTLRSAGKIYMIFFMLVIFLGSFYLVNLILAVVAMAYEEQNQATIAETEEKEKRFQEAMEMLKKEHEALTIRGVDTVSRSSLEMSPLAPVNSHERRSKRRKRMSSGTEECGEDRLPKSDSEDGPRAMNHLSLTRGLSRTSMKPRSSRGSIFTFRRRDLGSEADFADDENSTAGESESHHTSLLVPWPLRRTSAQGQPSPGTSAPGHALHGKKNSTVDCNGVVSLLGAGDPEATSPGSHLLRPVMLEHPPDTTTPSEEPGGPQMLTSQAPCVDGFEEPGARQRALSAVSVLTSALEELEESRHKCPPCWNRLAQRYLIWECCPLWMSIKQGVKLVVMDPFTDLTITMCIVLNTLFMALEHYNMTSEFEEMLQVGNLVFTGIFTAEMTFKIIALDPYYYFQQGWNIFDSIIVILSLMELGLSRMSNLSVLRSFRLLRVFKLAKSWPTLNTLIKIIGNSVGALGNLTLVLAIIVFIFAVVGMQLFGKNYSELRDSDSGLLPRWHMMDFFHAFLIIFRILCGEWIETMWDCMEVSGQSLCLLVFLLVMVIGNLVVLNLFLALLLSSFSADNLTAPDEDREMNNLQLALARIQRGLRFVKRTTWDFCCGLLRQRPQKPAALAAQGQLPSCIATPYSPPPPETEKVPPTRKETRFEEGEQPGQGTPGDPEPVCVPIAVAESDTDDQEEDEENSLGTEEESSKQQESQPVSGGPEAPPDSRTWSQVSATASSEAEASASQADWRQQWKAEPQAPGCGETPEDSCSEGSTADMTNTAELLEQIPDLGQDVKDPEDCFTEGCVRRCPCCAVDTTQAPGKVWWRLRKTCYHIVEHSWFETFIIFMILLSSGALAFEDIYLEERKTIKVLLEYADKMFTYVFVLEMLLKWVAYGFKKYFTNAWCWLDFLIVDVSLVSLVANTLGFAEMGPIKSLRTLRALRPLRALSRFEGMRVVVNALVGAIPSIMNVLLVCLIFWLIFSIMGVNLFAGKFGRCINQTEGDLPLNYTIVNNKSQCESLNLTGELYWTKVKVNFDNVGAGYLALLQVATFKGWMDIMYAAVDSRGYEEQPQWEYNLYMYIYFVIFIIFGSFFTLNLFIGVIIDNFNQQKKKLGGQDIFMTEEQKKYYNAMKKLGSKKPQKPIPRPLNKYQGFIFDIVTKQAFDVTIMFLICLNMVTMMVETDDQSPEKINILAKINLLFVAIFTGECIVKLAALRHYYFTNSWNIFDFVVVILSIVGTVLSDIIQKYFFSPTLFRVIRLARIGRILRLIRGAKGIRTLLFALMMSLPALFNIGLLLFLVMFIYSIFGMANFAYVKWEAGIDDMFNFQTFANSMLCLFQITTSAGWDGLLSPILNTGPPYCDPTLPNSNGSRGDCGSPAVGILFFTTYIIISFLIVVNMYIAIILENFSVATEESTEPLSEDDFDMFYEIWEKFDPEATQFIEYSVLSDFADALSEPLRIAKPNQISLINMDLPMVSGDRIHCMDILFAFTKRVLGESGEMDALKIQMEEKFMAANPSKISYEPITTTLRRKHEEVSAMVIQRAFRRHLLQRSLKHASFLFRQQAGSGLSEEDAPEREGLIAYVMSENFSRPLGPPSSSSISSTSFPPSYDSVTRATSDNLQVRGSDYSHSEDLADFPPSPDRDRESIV", "conditions": "cited from earlier work"}, "late INa [7]": {"system": "late INa", "conditions": "isolated hearts; read-out: IC50, ATX-II-induced late INa; cited from earlier work"}, "[8]": {"conditions": "3 μM RAN, 0.1 μM GS-967, 0.3 μM KN-93, 0.3 μM AIP, alone or combined, 30 min preincubation, then 50 nmol/L ATX-II"}, "[9]": {"conditions": "Rattus norvegicus, 3 μM RAN, 0.1 μM GS-967, 0.3 μM KN-93, 0.3 μM AIP, alone or combined, 30 min preincubation, then 50 nmol/L ATX-II, read-out: measured % Inhibition of ATX-II-induced arrhythmias"}, "[10]": {"conditions": "Rattus norvegicus, read-out: Measured % Inhibition of ATX-II-induced increase of diastolic tension"}}, "note": "Where two headings read alike, the source gives them in different places.", "data": [{"smiles": "FC(F)(F)Oc1ccc(-c2ccc3nnc(C(F)(F)F)n3c2)cc1", "note": "[GS-967, 6-[4-(trifluoromethoxy)phenyl]-3-(trifluoromethyl)[1,2,4]triazolo[4,3-a]pyridine]", "values": [{"measurement": "measured % Inhibition of ATX-II-induced arrhythmias", "setting": "isolated rat right atria [1]; [8]", "value": "34.2 ± 4.8", "unit": "%"}, {"measurement": "inhibition at 0.1 µM", "setting": "isolated rat right atria [1]; [9]", "value": 34, "unit": "%"}, {"measurement": "IC50", "setting": "isolated rat right atria [1]", "value": 1.29, "unit": "µM"}, {"measurement": "inhibition of the ATX-II-induced increase of diastolic Ca2+", "setting": "[2]", "value": 13, "unit": "%"}, {"measurement": "inhibition at 0.1 µM", "setting": "isolated rat right atria [3]; [10]", "value": 9.1, "unit": "%"}, {"measurement": "effect on ATX-II-induced AF", "setting": "isolated rat right atria [4]", "value": "failed to attenuate"}, {"measurement": "IC50", "setting": "late INa [5]; ventricular myocytes, read-out: IC50, ATX-II-induced late INa", "value": 0.13, "unit": "µM"}, {"measurement": "reduction of late INa and arrhythmias compared with flecainide or ranolazine", "setting": "late INa [5]; vs flecainide or ranolazine", "value": "more potent and effective"}, {"measurement": "proarrhythmic effects (afterdepolarizations and torsades de pointes) of ATX-II and E-4031", "setting": "[6]", "value": "prevented and reversed"}, {"measurement": "Reduction of peak INa", "setting": "peak INa; holding potential of −120 mV", "value": "minimal"}, {"measurement": "Reduction of peak INa", "setting": "peak INa; holding potential −80 mV", "value": "increased"}, {"measurement": "IC50", "setting": "late INa [7]", "value": 0.21, "unit": "µM"}]}, {"smiles": "COc1ccc(S(=O)(=O)N(CCO)c2ccccc2CN(C)C/C=C/c2ccc(Cl)cc2)cc1", "note": "[KN-93]", "values": [{"measurement": "measured % Inhibition of ATX-II-induced arrhythmias", "setting": "isolated rat right atria [1]; [8]", "value": "24.1 ± 7.6", "unit": "%"}, {"measurement": "inhibition at 0.3 µM", "setting": "isolated rat right atria [1]; [9]", "value": 23, "unit": "%"}, {"measurement": "effect on ATX-II induced arrhythmias and diastolic dysfunction", "setting": "isolated rat right atria [1]; rat right atria", "value": "prevented"}, {"measurement": "inhibition at 0.3 µM", "setting": "isolated rat right atria [3]; [10]", "value": 8.4, "unit": "%"}, {"measurement": "effect on ATX-II-induced AF", "setting": "isolated rat right atria [4]", "value": "failed to attenuate"}]}, {"smiles": "COc1ccccc1OCC(O)CN1CCN(CC(=O)Nc2c(C)cccc2C)CC1", "note": "(racemic) [ranolazine, (±)—N-(2,6-dimethylphenyl)-4-[2-hydroxy-3-(2-methoxyphenoxy)-propyl]-1-piperazineacetamide]", "values": [{"measurement": "measured % Inhibition of ATX-II-induced arrhythmias", "setting": "isolated rat right atria [1]; [8]", "value": 28, "unit": "%"}, {"measurement": "measured % Inhibition of ATX-II-induced arrhythmias", "setting": "isolated rat right atria [1]; 3 μM RAN, 0.1 μM GS-967, 0.3 μM KN-93, 0.3 μM AIP, alone or combined, 30 min preincubation, then 50 nmol/L ATX-II, listed as RAN", "value": "23.8 ± 3.1", "unit": "%"}, {"measurement": "IC50", "setting": "isolated rat right atria [1]", "value": 14.8, "unit": "µM"}, {"measurement": "Measured % Inhibition of ATX-II-induced increase of diastolic tension", "setting": "isolated rat right atria [3]", "value": 10.4, "unit": "%"}, {"measurement": "Measured % Inhibition of ATX-II-induced increase of diastolic tension", "setting": "isolated rat right atria [3]; listed as RAN", "value": "5.5 ± 1.5", "unit": "%"}, {"measurement": "effect on ATX-II-induced AF", "setting": "isolated rat right atria [4]", "value": "failed to attenuate"}]}]}
